What was measured:
[1] = tested on: BEAS-2B human bronchial epithelial cell line; experiment: Gene expression change by high-throughput RNA sequencing (NextSeq 500) in ketone-exposed BEAS-2B cells; format: cell-based
Experimental: RNA was extracted from cell samples of ketone-exposed and non-ketone-exposed groups using a TRIzol reagent (Life Technologies, USA) in accordance with the manufacturer's directions to isolate total RNA and the total RNA was purified using a RNeasy mini kit (Qiagen, USA). The concentration of each total RNA sample was determined by a ND-2000 spectrophotometer (Thermo Inc., DE, USA) as a spectrophotometer and Agilent 2100 Bioanalyzer (Agilent Technologies, USA).
The establishment of libraries from the total RNA obtained in Example 2-1 in the experimental group and the normal control group exposed to the ketones was carried out using a QuantSeq 3′ mRNA-Seq Library Prep Kit (Lexogen, Inc., Austria) in accordance with the manufacturer's directions. 500 ng of the total RNA was hybridized with an oligo-dT primer including an Illumina-compatible sequence at the 5′ end of RNA, followed by reverse transcription. After degradation of the RNA template, a second strand was synthesized using a random primer including an Illumina-compatible linker sequence at the 5′ end thereof. Double-stranded libraries were purified using magnetic beads to remove all reaction components. The library was amplified in order to add the entire adapter sequence required for cluster production, and the completed cDNA library was purified from the PCR components.
Sequencing was performed by high-throughput sequencing as single-end 75 sequencing using a NextSeq 500 (IIlumina, Inc., USA). Read count (RC) data was processed based on the quantile normalization method using EdgeR in R (R development Core Team, 2016) using Bioconductor (Gentleman et al., 2004). Gene classification was based on searches performed on DAVID (http://david.abcc.ncifcrf.gov/) and the Medline database (http://www.ncbi.nlm.nih.gov/).
The extracted data were analyzed through normalization using Agilent GeneSpring GX 12.6.1 (Agilent technologies, CA, USA) to analyze the expression pattern of each gene.

[2] = tested on: BEAS-2B human bronchial epithelial cell line; experiment: MTT assay, cytotoxicity of ketone compounds in BEAS-2B cell line; format: cell-based; settings: human, 48 h
Experimental: BEAS-2B (Korean Cell Line Bank), a human bronchial epithelial cell line, was cultured using RPMI 1640 medium (Gibco, USA) supplemented with 10% FBS until the cells grew to about a confluence of 70 to 80% in a 100 mm dish.
Among ketones belonging to mVOCs (microbial volatile organic compounds) exposed to the environment, acetone, 2-butanone, 2-pentanone, 2-hexanone and 2-heptanone were selected, and the chemicals were dissolved in filtered distilled water (DW). A vehicle concentration was set to 0.1% or less in all experiments.
MTT assay using a BEAS-2B cell line was performed in accordance with the method of Mossman et al. (J. Immunol. Methods, 65, 55-63, 1983).
Specifically, the cells were seeded at a density of 3.5×10^4 cells/well in a 24-well plate and treated with the five ketone compounds dissolved in filtered distilled water, prepared in Example 1-2. After 48 hours, the result was mixed with 5 mg/ml of MTT (3-4,5-dimethylthiazol-2,5-diphenyltetrazolium bromide), added to a tube and incubated at 37° C. for 3 hours. Then, the medium was removed, the formed formazan crystal was dissolved in 500 μl of DMSO, and then 100 μl of the solution was transferred to a 96-well plate to measure an OD (optical density) value at 540 nm.

[3] = IC5 conc.: Acetone 5.38, 2-Butanone 22.27, 2-Pentanone 5.24, 2-Hexanone 14.82, 2-Heptanone 5.05 mM
[4] = IC20 conc.: Acetone 71.90, 2-Butanone 106.21, 2-Pentanone 39.38, 2-Hexanone 52.51, 2-Heptanone 20.22 mM

CCCCCC(C)=O [2-Heptanone, 2-heptanone]
Fold change ADRA2A (NM_000681) [1, 3]: 0.321 | Fold change ATRNL1 (NR_074088) [1, 3]: 3.365 | Fold change C12orf79 (NR_046159) [1, 3]: 0.213 | Fold change C14orf80 (NR_046159) [1, 3]: 0.354 | Fold change CALML3 (NM_001286399) [1, 3]: 0.354 | Fold change CCDC184 (NM_001013635) [1, 3]: 4.098 | Fold change CD37 (NM_001040031) [1, 3]: 5.216 | Fold change CDHR1 (NM_001171971) [1, 3]: 0.386 | Fold change CHL1 (NM_001253387) [1, 3]: 0.122 | Fold change COL4A3 (NM_000091) [1, 3]: 4.774 | Fold change CRLF2 (NM_022148) [1, 3]: 0.355 | Fold change CSF3R (NM_172313) [1, 3]: 0.354 | Fold change DNMBP-AS1 (NR_024130) [1, 3]: 2.035 | Fold change EGR1 (NM_001964) [1, 3]: 0.410 | Fold change GNA14 (NM_004297) [1, 3]: 4.971 | Fold change LOC728752 (NR_036504) [1, 3]: 5.873 | Fold change PAX8 (NM_003466) [1, 3]: 4.275 | Fold change PRRT3-AS1 (NR_046734) [1, 3]: 2.285 | Fold change RBP3 (NM_002900) [1, 3]: 0.354 | Fold change SEPT14 (NM_207366) [1, 3]: 0.214 | Fold change SERPINA12 (NM_001304461) [1, 3]: 0.354 | Fold change SLC13A4 (NM_012450) [1, 3]: 4.638 | Fold change SPOCK2 (NM_001244950) [1, 3]: 4.800 | Fold change TSPAN1 (NM_005727) [1, 3]: 4.660 | Fold change USP12-AB1 (NR_046647) [1, 3]: 11.319 | Fold change VIPR†-AS1 (NR_046654) [1, 3]: 0.354 | Fold change XIRP1 (NM_001198621) [1, 3]: 0.354 | Fold change ZFP69B (NM_023070) [1, 3]: 3.346 | Fold change ZNF432 (NM_014650) [1, 3]: 3.207 | Fold change ZNF487 (NR_026693) [1, 3]: 0.354 | Fold change ADRA2A (NM_000681) [1, 4]: 0.179 | Fold change ATRNL1 (NR_074088) [1, 4]: 3.204 | Fold change C12orf79 (NR_046159) [1, 4]: 0.213 | Fold change C14orf80 (NR_046159) [1, 4]: 0.354 | Fold change CALML3 (NM_001286399) [1, 4]: 0.354 | Fold change CCDC184 (NM_001013635) [1, 4]: 6.381 | Fold change CD37 (NM_001040031) [1, 4]: 3.227 | Fold change CDHR1 (NM_001171971) [1, 4]: 0.216 | Fold change CHL1 (NM_001253387) [1, 4]: 0.335 | Fold change COL4A3 (NM_000091) [1, 4]: 8.193 | Fold change CRLF2 (NM_022148) [1, 4]: 0.355 | Fold change CSF3R (NM_172313) [1, 4]: 0.354 | Fold change DNMBP-AS1 (NR_024130) [1, 4]: 11.098 | Fold change EGR1 (NM_001964) [1, 4]: 0.381 | Fold change GNA14 (NM_004297) [1, 4]: 4.498 | Fold change LOC728752 (NR_036504) [1, 4]: 5.440 | Fold change PAX8 (NM_003466) [1, 4]: 4.602 | Fold change PRRT3-AS1 (NR_046734) [1, 4]: 2.525 | Fold change RBP3 (NM_002900) [1, 4]: 0.354 | Fold change SEPT14 (NM_207366) [1, 4]: 0.214 | Fold change SERPINA12 (NM_001304461) [1, 4]: 0.354 | Fold change SLC13A4 (NM_012450) [1, 4]: 11.825 | Fold change SPOCK2 (NM_001244950) [1, 4]: 2.838 | Fold change TSPAN1 (NM_005727) [1, 4]: 3.058 | Fold change USP12-AB1 (NR_046647) [1, 4]: 4.509 | Fold change VIPR†-AS1 (NR_046654) [1, 4]: 0.354 | Fold change XIRP1 (NM_001198621) [1, 4]: 0.354 | Fold change ZFP69B (NM_023070) [1, 4]: 2.674 | Fold change ZNF432 (NM_014650) [1, 4]: 4.845 | Fold change ZNF487 (NR_026693) [1, 4]: 0.354 | concentration (105) providing a survival rate (viability) of 95% [2]: 5050 µM | concentration (1020) providing a survival rate (viability) of 80% [2]: 20220 µM

CCCCC(C)=O [2-Hexanone, 2-hexanone]
Fold change ADRA2A (NM_000681) [1, 3]: 0.410 | Fold change ATRNL1 (NR_074088) [1, 3]: 2.058 | Fold change C12orf79 (NR_046159) [1, 3]: 0.218 | Fold change C14orf80 (NR_046159) [1, 3]: 0.358 | Fold change CALML3 (NM_001286399) [1, 3]: 0.358 | Fold change CCDC184 (NM_001013635) [1, 3]: 3.872 | Fold change CD37 (NM_001040031) [1, 3]: 4.214 | Fold change CDHR1 (NM_001171971) [1, 3]: 0.228 | Fold change CHL1 (NM_001253387) [1, 3]: 0.296 | Fold change COL4A3 (NM_000091) [1, 3]: 4.765 | Fold change CRLF2 (NM_022148) [1, 3]: 0.362 | Fold change CSF3R (NM_172313) [1, 3]: 0.358 | Fold change DNMBP-AS1 (NR_024130) [1, 3]: 14.919 | Fold change EGR1 (NM_001964) [1, 3]: 0.448 | Fold change GNA14 (NM_004297) [1, 3]: 8.515 | Fold change LOC728752 (NR_036504) [1, 3]: 6.212 | Fold change PAX8 (NM_003466) [1, 3]: 5.964 | Fold change PRRT3-AS1 (NR_046734) [1, 3]: 2.811 | Fold change RBP3 (NM_002900) [1, 3]: 0.358 | Fold change SEPT14 (NM_207366) [1, 3]: 0.220 | Fold change SERPINA12 (NM_001304461) [1, 3]: 0.358 | Fold change SLC13A4 (NM_012450) [1, 3]: 4.947 | Fold change SPOCK2 (NM_001244950) [1, 3]: 4.851 | Fold change TSPAN1 (NM_005727) [1, 3]: 2.828 | Fold change USP12-AB1 (NR_046647) [1, 3]: 3.862 | Fold change VIPR†-AS1 (NR_046654) [1, 3]: 0.358 | Fold change XIRP1 (NM_001198621) [1, 3]: 0.358 | Fold change ZFP69B (NM_023070) [1, 3]: 4.095 | Fold change ZNF432 (NM_014650) [1, 3]: 5.206 | Fold change ZNF487 (NR_026693) [1, 3]: 0.358 | Fold change ADRA2A (NM_000681) [1, 4]: 0.179 | Fold change ATRNL1 (NR_074088) [1, 4]: 2.281 | Fold change C12orf79 (NR_046159) [1, 4]: 0.213 | Fold change C14orf80 (NR_046159) [1, 4]: 0.354 | Fold change CALML3 (NM_001286399) [1, 4]: 0.354 | Fold change CCDC184 (NM_001013635) [1, 4]: 6.982 | Fold change CD37 (NM_001040031) [1, 4]: 2.819 | Fold change CDHR1 (NM_001171971) [1, 4]: 0.432 | Fold change CHL1 (NM_001253387) [1, 4]: 0.364 | Fold change COL4A3 (NM_000091) [1, 4]: 4.424 | Fold change CRLF2 (NM_022148) [1, 4]: 0.355 | Fold change CSF3R (NM_172313) [1, 4]: 0.354 | Fold change DNMBP-AS1 (NR_024130) [1, 4]: 5.009 | Fold change EGR1 (NM_001964) [1, 4]: 0.328 | Fold change GNA14 (NM_004297) [1, 4]: 4.986 | Fold change LOC728752 (NR_036504) [1, 4]: 6.982 | Fold change PAX8 (NM_003466) [1, 4]: 2.992 | Fold change PRRT3-AS1 (NR_046734) [1, 4]: 3.123 | Fold change RBP3 (NM_002900) [1, 4]: 0.354 | Fold change SEPT14 (NM_207366) [1, 4]: 0.214 | Fold change SERPINA12 (NM_001304461) [1, 4]: 0.354 | Fold change SLC13A4 (NM_012450) [1, 4]: 7.012 | Fold change SPOCK2 (NM_001244950) [1, 4]: 3.833 | Fold change TSPAN1 (NM_005727) [1, 4]: 4.272 | Fold change USP12-AB1 (NR_046647) [1, 4]: 3.988 | Fold change VIPR†-AS1 (NR_046654) [1, 4]: 0.354 | Fold change XIRP1 (NM_001198621) [1, 4]: 0.354 | Fold change ZFP69B (NM_023070) [1, 4]: 2.573 | Fold change ZNF432 (NM_014650) [1, 4]: 4.577 | Fold change ZNF487 (NR_026693) [1, 4]: 0.354 | concentration (105) providing a survival rate (viability) of 95% [2]: 14820 µM | concentration (1020) providing a survival rate (viability) of 80% [2]: 52510 µM

— patent US20210115509A1, “BIOMARKER FOR IDENTIFYING SPECIFIC EXPOSURE TO KETONES AND METHOD OF IDENTIFICATION USING THE SAME” (KOREA INSTITUTE OF SCIENCE AND TECHNOLOGY, priority 2019, published 2021)
